In patent publication EP4238553A1, “COMPOSITIONS AND METHODS FOR DELIVERING CLOFOCTOL” (priority 2022, dated 2023):
In brackets after ≈: the same amount, converted by molar mass.

Tests used:
[1] = clofoctol purity in the aerosol after thermal aerosol generation (LC-UV-MS); format: physicochemical; details: for Mean purity: mean of puffs 1 and 2
Protocol: (§1) The purity of a clofoctol-containing aerosol, and quantitation of clofoctol in this aerosol was determined using a method that involves forming the aerosol in a device through which an air flow is maintained, generally at a rate between 1 and 180 L/min. The gas flow carries the aerosol into one or more traps. After extraction from the trap, the trapped components from the aerosol are subjected to an analytical technique, such as liquid chromatography, that permits a determination of composition and purity. The liquid chromatography discussed above contains a detection system (i.e., detector). Such detection systems are well known in the art and include, for example, UV detectors and mass spectrometry detectors. Liquid chromatography-mass spectrometry is the preferred analytical technique.
Solutions containing 20 mg/g of clofoctol in various solvents were prepared. Aerosols were produced using a TAG (Vaporesso swag 2 with a coil resistance of 0.3 ohms) at different powers. The flow of aerosol was generated using an air flow of 20 L/min. One or two successive puffs of 2.5s each was (were) done for each condition. For each puff, a certain volume of emitted aerosol was trapped on a plastic filter. Clofoctol was then extracted from the filter and analysed by LC-UV-MS.

physchem = format: physicochemical; details: for solubility at 48 h / solubility at 120 h: organic solvent or mixture
Protocol: Solutions of clofoctol were prepared in different solvents: 100% PG, 85/15 PG/Gly, 70/30 PG/Gly, 50/50 PG/Gly. Solutions were sonicated then incubated at 65°C for 30 min, until complete dissolution of clofoctol. Then, the samples were incubated at RT under stirring for different times. For collection before analysis after determined incubation times, the solutions were centrifuged, then the supernatants were collected and diluted before LC-MS/MS analysis for clofoctol quantitation in samples.

[2] = characterization of aerosol particles by laser light scattering (Malvern Mastersizer X); format: physicochemical; details: air flow 20L/min
Protocol: The "median diameter" (D(v;0.5)) of an aerosol refers to the diameter for which half the particulate mass of the aerosol consists of particles with a diameter larger than the median diameter and half by particles with a diameter smaller than the median diameter. The median diameter is measured by laser light scattering using for example a Malvern Mastersizer X or any equivalent apparatus working on the same principle of laser light scattering.
The "span" of a volume-based size distribution is defined by Span = (D(v;0.9) - D(v;0.1)) / D(v;0.5) and gives an indication of how far the 10 percent and 90 percent points are apart, normalized by the midpoint.
The "volume concentration" is the volume of particles reported to the total volume of the aerosol expressed as a percentage. The volume concentration is measured by laser light scattering using for example a Malvern Mastersizer X or any equivalent apparatus working on the same principle of laser light scattering.
Solutions containing 10 mg/g or 20 mg/g of clofoctol in various solvents were prepared. Aerosols were produced using a TAG (Vaporesso swag 2 with a coil resistance of 0.3 ohms) at different powers. The flow of aerosol was generated using an air flow of 20L/min. A certain volume of emitted aerosol was passed through the laser beam of a granulometer, Mastersizer X from Malvern.

in vivo = test: in vivo; parameters: species or system Mice; details: mouse, inhaled or intranasal
Protocol: Mice (Charles River, Female CD-1, 20-23 g) were permitted water and food ad libitum during the experiment. Clofoctol was administrated by Nose-Only inhalation in a homemade inhalation chamber in part inspired by a previous described apparatus (ref. 6). Animals were acclimated to restraint during a week before the experiment started. Animals were exposed to an aerosol generated (using a TAG connected to the chamber: Vaporesso swag 2 with a coil resistance of 0.3 ohms) from a solution of 20 mg/g of clofoctol ([…]/Glycerin, 85/15) for a period of 15 min with a puff of 4.5 s every minute (with a power of 30W).
Blood and lungs (left lung) were sampled 5, 10, 15, 30, 60 and 120 minutes after the end of a single inhalation period (2 mice/sampling time). The blood was sampled in tubes with Lithium Heparin on ice and then the plasma was separated from the red cells by centrifugation and frozen (-80°C).
A known mass (approximately 15mg, weighed beforehand) of each lung was placed into a 'safe lock' microtube (2 mL). […]
The unknown lung concentrations of clofoctol were calculated from a calibration line produced in the same matrix (naive lung from 'vehicle' animals) and reprocessed in the same way as the samples (homogenization in ethanol).

[3] = aerosol drug mass density (TAG aerosol trapped on filter, LC-MS); format: physicochemical; details: airflow 34 L per minute; for Collected mass of clofoctol in the trap: 1.416 L aerosol trapped
Protocol: The term "aerosol" refers to a suspension of fine solid particles or liquid droplets in a gas. The expression "(aerosol) drug mass density" refers to the mass of clofoctol per unit volume of aerosol. It is calculated by measuring the quantity of clofoctol in a determined volume of aerosol beforehand trapped.
as §1
Solutions containing 20 mg/g of clofoctol in various solvents were prepared. Aerosols were produced using a TAG (Vaporesso swag 2 with a coil resistance of 0.3 ohms) at different powers and an airflow of 34 L per minute. 1.416 L of emitted aerosol was trapped on a plastic filter. Clofoctol was then extracted from the filter and dosed by LC-MS to determine the drug mass density.

[4] = aerosol from 10 mg/g CFT in 85/15 PG/Gly, power 30 W
[5] = aerosol from 10 mg/g CFT in 85/15 PG/Gly, power 45 W
[6] = aerosol from 10 mg/g CFT in 85/15 PG/Gly, power 60 W
[7] = aerosol from 20 mg/g CFT in 70/30 PG/Gly, power 30 W
[8] = aerosol from 20 mg/g CFT in 85/15 PG/Gly, power 30 W
[9] = aerosol from 20 mg/g CFT in 100% PG, power 30 W
[10] = 20 mg/g clofoctol in 70/30 PG/Gly, TAG power 30 W
[11] = 20 mg/g clofoctol in 85/15 PG/Gly, TAG power 30 W
[12] = 20 mg/g clofoctol in 85/15 PG/Gly, TAG power 50 W
[13] = 20 mg/g clofoctol in 85/15 PG/Gly, TAG power 80 W
[14] = 20 mg/g clofoctol in 100% PG, TAG power 30 W

Structure (SMILES): CC(C)(C)CC(C)(C)c1ccc(O)c(Cc2ccc(Cl)cc2Cl)c1 [clofoctol, 2-[(2,4-dichlorophenyl)methyl]-4-(2,4,4-trimethylpentan-2-yl)phenol]
- Mean purity ([1]; aerosol from 20 mg/g clofoctol in 70/30 PG/Gly, power 30 W): 100.0%
- Purity CFT ([1]; aerosol from 20 mg/g clofoctol in 70/30 PG/Gly, power 30 W, puff number 1): 100.0%
- Purity CFT ([1]; aerosol from 20 mg/g clofoctol in 70/30 PG/Gly, power 30 W, puff number 2): 100.0%
- Mean purity ([1]; aerosol from 20 mg/g clofoctol in 70/30 PG/Gly, power 80 W): 91.0%
- Purity CFT ([1]; aerosol from 20 mg/g clofoctol in 70/30 PG/Gly, power 80 W, puff number 1): 91.4%
- Purity CFT ([1]; aerosol from 20 mg/g clofoctol in 70/30 PG/Gly, power 80 W, puff number 2): 90.6%
- Mean purity ([1]; aerosol from 20 mg/g clofoctol in 100% PG, power 30 W): 100.0%
- Purity CFT ([1]; aerosol from 20 mg/g clofoctol in 100% PG, power 30 W, puff number 1): 100.0%
- Purity CFT ([1]; aerosol from 20 mg/g clofoctol in 100% PG, power 30 W, puff number 2): 100.0%
- Mean purity ([1]; aerosol from 20 mg/g clofoctol in 100% PG, power 80 W): 87.4%
- Purity CFT ([1]; aerosol from 20 mg/g clofoctol in 100% PG, power 80 W, puff number 1): 92.0%
- Purity CFT ([1]; aerosol from 20 mg/g clofoctol in 100% PG, power 80 W, puff number 2): 82.7%
- solubility at 48 h (physchem; 50/50 pg/gly): 7.9 mM (≈ 2.89 mg/mL)
- solubility at 120 h (physchem; 50/50 pg/gly): 6.7 mM (≈ 2.45 mg/mL)
- solubility at 48 h (physchem; 70/30 pg/gly): 29.8 mM (≈ 10.9 mg/mL)
- solubility at 120 h (physchem; 70/30 pg/gly): 28.1 mM (≈ 10.3 mg/mL)
- solubility at 48 h (physchem; 85/15 pg/gly): 504 mM (≈ 184 mg/mL)
- solubility at 120 h (physchem; 85/15 pg/gly): 147 mM (≈ 53.6 mg/mL)
- solubility at 48 h (physchem; 100% pg): 489 mM (≈ 179 mg/mL)
- solubility at 120 h (physchem; 100% pg): 441 mM (≈ 161 mg/mL)
- maximum concentration achieved (physchem; 7200 min): about 15 % by weight
- Mean diameter [2, 4]: 2.45 µm
- Median diameter [2, 4]: 2.42 µm
- Sauter diameter [2, 4]: 2.34 µm
- Span [2, 4]: 0.519
- Volume conc. [2, 4]: 0.0052%
- Mean diameter [2, 5]: 2.40 µm
- Median diameter [2, 5]: 2.38 µm
- Sauter diameter [2, 5]: 2.30 µm
- Span [2, 5]: 0.523
- Volume conc. [2, 5]: 0.0027%
- Mean diameter [2, 6]: 2.63 µm
- Median diameter [2, 6]: 2.59 µm
- Sauter diameter [2, 6]: 2.46 µm
- Span [2, 6]: 0.635
- Volume conc. [2, 6]: 0.0018%
- Mean diameter [2, 7]: 2.89 µm
- Median diameter [2, 7]: 2.87 µm
- Sauter diameter [2, 7]: 2.76 µm
- Span [2, 7]: 0.551
- Volume conc. [2, 7]: 0.0020%
- Mean diameter [2, 8]: 2.41 µm
- Median diameter [2, 8]: 2.38 µm
- Sauter diameter [2, 8]: 2.30 µm
- Span [2, 8]: 0.543
- Volume conc. [2, 8]: 0.0016%
- Mean diameter [2, 9]: 2.78 µm
- Median diameter [2, 9]: 2.75 µm
- Sauter diameter [2, 9]: 2.66 µm
- Span [2, 9]: 0.521
- Volume conc. [2, 9]: 0.0038%
- Tmax (in vivo): ≤ 5 min
- Drug mass density [3, 10]: 0.091 mg/L
- Collected mass of clofoctol in the trap [3, 10]: 128.3 µg
- Drug mass density [3, 11]: 0.096 mg/L
- Collected mass of clofoctol in the trap [3, 11]: 135.8 µg
- Drug mass density [3, 12]: 0.099 mg/L
- Collected mass of clofoctol in the trap [3, 12]: 141.1 µg
- Drug mass density [3, 13]: 0.071 mg/L
- Collected mass of clofoctol in the trap [3, 13]: 100.5 µg
- Drug mass density [3, 14]: 0.159 mg/L
- Collected mass of clofoctol in the trap [3, 14]: 225.6 µg
